These results are taken from ChEMBL document CHEMBL3351506, “Synthesis and antiproliferative activity of conjugates of adenosine with muramyl dipeptide and nor-muramyl dipeptide derivatives” (Bioorg Med Chem Lett, 2014).

The structures appear in SMILES notation.

Series [1] deals with L1210. Put plainly: Cytotoxicity against mouse L1210 cells assessed as inhibition of cell viability after 72 hrs by MTT assay. It counts as functional, cell-based. The following applies: L1210, 72 h. (Tetrazolium dyes change colour on reduction, which living cells bring about.)
For the next series, the system named is PBMC. Put plainly: Cytotoxicity against human PBMC assessed as inhibition of cell viability after 72 hrs by MTT assay. It counts as cell-based.
The subject of series [2] is L1210. Nature of the series: Antitumor activity against mouse L1210 cells assessed as inhibition of [3H]thymidine incorporation after 72 hrs. The series is classed as functional, cell-based. (Uptake of a labelled nucleoside into DNA is a usual measure of proliferation.)
Series [3] relates to L1210. Nature of the series: Cytotoxicity against mouse L1210 cells assessed as inhibition of cell viability after 72 hrs by MTT assay relative to control. The following applies: values are per cent of control. The series is classed as functional. Details: concentration or dose not given beside the values.
The test system of series [4] is L1210. Nature of the series: Ratio of IC50 for mouse L1210 cells by MTT assay to EC50 for mouse L1210 cells by [3H]thymidine incorporation assay. The series is classed as functional.
Series [5] deals with L1210. Put plainly: Antitumor activity against mouse L1210 cells assessed as inhibition of [3H]thymidine incorporation at 0.25 mg/ml after 72 hrs relative to control. The series is classed as functional.
Series [6] is described as follows: Cytotoxicity against human PBMC assessed as inhibition of cell viability at 0.25 mg/ml after 72 hrs by MTT assay. The series is classed as cell-based. The following applies: PBMC (peripheral blood mononuclear cells), read-out: INH.

Turning to `CC(=O)N[C@H]1[C@@H](OCc2ccccc2)O[C@H](CO)[C@@H](O)[C@@H]1O[C@H](C)C(=O)N[C@@H](C(=O)N[C@H](CCC(=O)O)C(N)=O)C(C)C`, the IC50 in the series with L1210 [1] is 266 µM; with PBMC, 244 µM. Further, the EC50 in the series with L1210 [2] was found to be 228 µM. Also, the “viability, % of control” value in the series with L1210 [3] worked out at 39.72%. Also, the “Ratio IC50/EC50” value in the series on L1210 [4] is given as 47.9. In addition, the inhibition at 250 µg/mL with L1210 [5] was found to be 0.83%. In series [6], the cytotoxicity at 72 h, 0.25 mg/ml is < 50%.

By IC50 is commonly meant the concentration that inhibits the measured activity by half. As a reminder, the EC50 is the midpoint of the concentration-response curve. The inhibition is the drop in the measured response relative to a control, in per cent.
